From patent US11149031B2, “Substituted N-(3-fluoropropyl)-pyrrolidine compounds, processes for their preparation and therapeutic uses thereof” (SANOFI, priority 2016, dated 2021)

Tests used:
[1] = system: MCF7 cells expressing mutant estrogen receptor Tyr 537 Ser; assay: Test B: cell proliferation/viability assay (CellTiter-Glo) on MCF7 Tyr 537 Ser mutant; assay type: cell-based; conditions: Homo sapiens, MCF7, 168 h, MCF7 cells expressing ER Tyr 537 Ser mutant, 7 days of compound exposure, read-out: proliferation MCF7 Y537S IC50
Text: (§1) Test B: Cell Proliferation/Viability Assay on MCF7 (Breast Tumor Cells) WT and Mutants Cell Lines
(§2) Test B involves measuring the in vitro proliferation activity of the compounds of the invention by analyzing the viability of the tumor cells.
(§3) The measurements of the viability were made using a breast cancer cell viability assay as described hereunder.
(§4) MCF7 cells expressing (and dependent) on mutants estrogen receptor Tyr 537 Ser or Asp 538 Gly were generated by transfection of MCF7 parental cells (ATCC) with expression vectors coding for different mutants of estrogen receptor Tyr 537 Ser or Asp 538 Gly. The cells were first selected by antibiotic (related to vector expression) and then selected for their growth dependence on estrogen receptor based on their ability to grow in vitro in absence of estradiol (parental cell line die in absence of estradiol).
(§5) MCF7 cells (ATCC) or MCF7 cells expressing (and dependent) on mutants estrogen receptor Tyr 537 Ser or Asp 538 Gly were seeded in 384 wells microplate at concentration of >999 cells/30 μL per well in red phenol free MEM medium containing 5% charcoal dextran striped FBS. The following day, 9 points serial 1:5 dilution of each compound were added to the cells in 20 μL at final concentrations ranging from 3-0.000001 μM. After 7 days of compound exposure, 50 μL of CellTiter-Glo (promega) was added to the cells and relative luminescence arbitrary units (RLUs) were determined in luminescence plate reader (Envision device). CellTiter-Glo was added to 50 μL medium without cells to determine the background signal.
(§6) The percent of viability of each sample was determined as follows: (RLU sample−RLU background/RLU untreated−RLU background)*100=% viability.

[2] = system: MCF7 cells (breast tumor cells) WT; assay: Test B: cell proliferation/viability assay (CellTiter-Glo) on MCF7 WT; assay type: cell-based; conditions: Homo sapiens, MCF7, 168 h, 7 days of compound exposure
Method: as §1, §2
The measurements of the viability were made using a breast cancer cell viability assay as described hereunder. […]
as §5, §6

[3] = system: MCF7 cells expressing mutant estrogen receptor Asp 538 Gly; assay: Test B: cell proliferation/viability assay (CellTiter-Glo) on MCF7 Asp 538 Gly mutant; assay type: cell-based; conditions: Homo sapiens, MCF7, 168 h, MCF7 cells expressing ER Asp 538 Gly mutant, 7 days of compound exposure, read-out: proliferation MCF7 D538G IC50
Text: as §1, §2, §3, §4, §5, §6

[4] = molecular target: His6-ERα298-554 Y537S mutant (ERα ligand-binding domain) (Homo sapiens (Human), UniProt P03372, Y537S); assay: Test A: biochemical antagonist activity, LanthaScreen TR-FRET ERα coactivator assay, Y537S mutant; conditions: protocol with 3 nM estradiol; read-out: Antagonism Y537S IC50
Sequence of His6-ERα298-554 Y537S mutant (ERα ligand-binding domain) (P03372 298-554 Y537S): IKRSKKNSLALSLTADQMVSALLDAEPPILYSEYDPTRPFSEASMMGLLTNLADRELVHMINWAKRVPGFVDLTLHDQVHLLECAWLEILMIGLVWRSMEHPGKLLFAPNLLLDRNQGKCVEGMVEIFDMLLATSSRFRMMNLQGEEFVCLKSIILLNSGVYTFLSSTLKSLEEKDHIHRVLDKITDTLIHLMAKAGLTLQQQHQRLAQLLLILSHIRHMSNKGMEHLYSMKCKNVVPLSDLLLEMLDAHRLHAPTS
How it was run: (§7)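 IC50 values come from a 4-parameter logistic fit of the 520:495 nm TR-FRET ratio after overnight room-temperature incubation. The mix held 0.5 nM ERα 298–554 LBD, Tb-labelled anti-His6 antibody, 250 nM PGC1a peptide and 3 nM or 10 nM estradiol, pH 7.4 phosphate buffer with DTT.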

ERα in MCF7 cells = ERα in MCF7 cells (Homo sapiens (Human), UniProt P03372); assay: Test C: estrogen receptor degradation activity, ERα in cell western assay in MCF7 cells; assay type: cell-based; conditions: for DC50: 4 hours post compound addition, ERα in cell western, read-out: Degradation IC50; for % Degradation at 3 μM: 4 hours, relative to fulvestrant
Sequence of ERα in MCF7 cells (P03372 whole entry): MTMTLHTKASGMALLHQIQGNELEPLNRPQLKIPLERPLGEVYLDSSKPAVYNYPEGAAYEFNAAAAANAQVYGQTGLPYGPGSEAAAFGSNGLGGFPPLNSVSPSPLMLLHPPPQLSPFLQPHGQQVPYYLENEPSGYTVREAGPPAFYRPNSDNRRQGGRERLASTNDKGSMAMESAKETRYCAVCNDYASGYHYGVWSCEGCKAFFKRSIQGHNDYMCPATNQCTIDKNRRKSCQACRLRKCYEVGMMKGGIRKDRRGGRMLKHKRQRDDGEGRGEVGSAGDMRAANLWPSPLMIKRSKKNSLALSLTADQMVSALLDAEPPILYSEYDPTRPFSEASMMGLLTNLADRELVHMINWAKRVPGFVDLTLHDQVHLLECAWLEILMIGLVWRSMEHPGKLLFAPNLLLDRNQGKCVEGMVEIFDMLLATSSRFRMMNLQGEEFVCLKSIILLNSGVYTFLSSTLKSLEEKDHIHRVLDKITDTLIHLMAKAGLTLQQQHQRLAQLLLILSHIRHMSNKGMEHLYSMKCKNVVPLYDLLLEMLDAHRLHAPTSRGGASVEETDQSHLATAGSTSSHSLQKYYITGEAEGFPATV
How it was run: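 In-cell western, MCF7, 4 h compound exposure, 3–0.000018 μM final, 9 points, 1:5 steps. Formalin/Triton fix, anti-ER rabbit mAb overnight cold, Alexa 488 secondary plus 2 μM Syto-64. Green intensity = ERα, red = DNA; no-primary wells as background.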

[5] = molecular target: His6-ERα298-554 WT (ERα ligand-binding domain) (Homo sapiens (Human), UniProt P03372); assay: Test A: biochemical antagonist activity, LanthaScreen TR-FRET ERα coactivator assay, WT; conditions: protocol with 3 nM estradiol; read-out: Antagonism WT IC50
Sequence of His6-ERα298-554 WT (ERα ligand-binding domain) (P03372 298-554): as the sequence (P03372 298-554 Y537S) above, with S240Y counted along it
How it was run: as §7

[6] = molecular target: His6-ERα298-554 D538G mutant (ERα ligand-binding domain) (Homo sapiens (Human), UniProt P03372, D538G); assay: Test A: biochemical antagonist activity, LanthaScreen TR-FRET ERα coactivator assay, D538G mutant; conditions: protocol with 3 nM estradiol; read-out: Antagonism D538G IC50
Sequence of His6-ERα298-554 D538G mutant (ERα ligand-binding domain) (P03372 298-554 D538G): as the sequence (P03372 298-554 Y537S) above, with S240Y, D241G counted along it
How it was run: as §7

Compound | IC50 [1] [nM] | IC50 [2] [nM] | IC50 [3] [nM] | IC50 [4] [nM] | DC50 (ERα in MCF7 cells) [nM] | % Degradation at 3 μM (ERα in MCF7 cells) [%] | IC50 [5] [nM] | IC50 [6] [nM]
Cc1ccc(C2=C(c3ccc(O[C@H]4CCN(CCCF)C4)cc3)c3ccc(O)cc3SC2)c(Cl)c1 [Example 58, 3-(2-chloro-4-methyl-phenyl)-4-[4-[(3S)-1-(3-fluoropropyl)pyrrolidin-3-yl]oxyphenyl]-2H-thiochromen-7-ol] | 5 | 2 | 0.8 | – | – | – | – | –
Oc1ccc2c(c1)CCC(c1ccc(OC(F)(F)F)cc1)=C2c1ccc(O[C@H]2CCN(CCCF)C2)cc1 [Example 12, 5-[4-[(3S)-1-(3-fluoropropyl)pyrrolidin-3-yl]oxyphenyl]-6-[4-(trifluoromethoxy)phenyl]-7,8-dihydronaphthalen-2-ol] | 9 | 1 | 5 | – | – | – | – | –
Oc1ccc2c(c1)C(c1ccc(O[C@H]3CCN(CCCF)C3)cc1)=C(c1cccc(F)c1Cl)CCS2 [Example 170, 4-(2-chloro-3-fluoro-phenyl)-5-[4-[(3S)-1-(3-fluoropropyl)pyrrolidin-3-yl]oxyphenyl]-2,3-dihydro-1-benzothiepin-7-ol] | – | – | – | 82 | 1 | 81 | 18 | 129
Cc1c(Cl)cccc1C1=C(c2ccc(O[C@H]3CCN(CCCF)C3)cc2)c2ccc(O)cc2OCC1 [Example 101, 4-(3-chloro-2-methyl-phenyl)-5-[4-[(3S)-1-(3-fluoropropyl)pyrrolidin-3-yl]oxyphenyl]-2,3-dihydro-1-benzoxepin-8-ol] | – | – | – | 25 | 0.6 | 92 | 6 | 50
Cc1ccc(C2=C(c3ccc(O[C@H]4CCN(CCCF)C4)cc3)c3ccc(O)c(Cl)c3OCC2)c(F)c1 [Example 108, 9-chloro-4-(2-fluoro-4-methyl-phenyl)-5-[4-[(3S)-1-(3-fluoropropyl)pyrrolidin-3-yl]oxyphenyl]-2,3-dihydro-1-benzoxepin-8-ol] | – | – | – | 129 | 3 | 86 | 30 | 221
Oc1ccc2c(c1Cl)OCCC(c1cccc3c1CCN3)=C2c1ccc(O[C@H]2CCN(CCCF)C2)cc1 [Example 128, 9-chloro-5-[4-[(3S)-1-(3-fluoropropyl)pyrrolidin-3-yl]oxyphenyl]-4-indolin-4-yl-2,3-dihydro-1-benzoxepin-8-ol] | – | – | – | 933 | 14 | 72 | 96 | 1210
Oc1ccc2c(c1)OCCC(c1ccc(Cl)c(F)c1)=C2c1ccc(O[C@H]2CCN(CCCF)C2)cc1 [Example 97, 4-(4-chloro-3-fluoro-phenyl)-5-[4-[(3S)-1-(3-fluoropropyl)pyrrolidin-3-yl]oxyphenyl]-2,3-dihydro-1-benzoxepin-8-ol] | – | – | – | 18 | 0.2 | 94 | 50 | 358
Oc1ccc2c(c1)SCCC(c1ccc(F)cc1Cl)=C2c1ccc(O[C@H]2CCN(CCCF)C2)cc1 [Example 159, 4-(2-chloro-4-fluoro-phenyl)-5-[4-[(3S)-1-(3-fluoropropyl)pyrrolidin-3-yl]oxyphenyl]-2,3-dihydro-1-benzothiepin-8-ol] | – | – | – | 10 | 0.5 | 89 | 3 | 17
O=S1(=O)CCC(c2cccc(O)c2)=C(c2ccc(O[C@H]3CCN(CCCF)C3)cc2)c2ccc(O)cc21 [Example 228, 5-[4-[(3S)-1-(3-fluoropropyl)pyrrolidin-3-yl]oxyphenyl]-4-(3-hydroxyphenyl)-1,1-dioxo-2,3-dihydro-benzothiepin-8-ol] | – | – | – | 38 | 0.2 | 87 | 6 | 73
Cc1c(F)cccc1C1=C(c2ccc(O[C@H]3CCN(CCCF)C3)cc2)c2ccc(O)cc2OCC1 [Example 126, 4-(3-fluoro-2-methyl-phenyl)-5-[4-[(3S)-1-(3-fluoropropyl)pyrrolidin-3-yl]oxyphenyl]-2,3-dihydro-1-benzoxepin-8-ol] | – | – | – | 55 | 0.3 | 91 | 5 | 94
Oc1ccc2c(c1Cl)OCCC(c1ccc3c(c1)NCC3)=C2c1ccc(O[C@H]2CCN(CCCF)C2)cc1 [Example 125, 9-chloro-5-[4-[(3S)-1-(3-fluoropropyl)pyrrolidin-3-yl]oxyphenyl]-4-indolin-6-yl-2,3-dihydro-1-benzoxepin-8-ol] | – | – | – | 945 | 4 | 84 | 190 | 1340
Cc1ccc(C2=C(c3ccc(O[C@H]4CCN(CCCF)C4)cc3)c3ccc(O)cc3S(=O)(=O)CC2)c(F)c1 [Example 230, 4-(2-fluoro-4-methyl-phenyl)-5-[4-[(3S)-1-(3-fluoropropyl)pyrrolidin-3-yl]oxyphenyl]-1,1-dioxo-2,3-dihydro-1λ^6-benzothiepin-8-ol] | – | – | – | 41 | 0.8 | 93 | 14 | 99
Oc1ccc2c(c1)SCCC(c1cccc(F)c1Cl)=C2c1ccc(O[C@H]2CCN(CCCF)C2)cc1 [Example 168, 4-(2-chloro-3-fluoro-phenyl)-5-[4-[(3S)-1-(3-fluoropropyl)pyrrolidin-3-yl]oxyphenyl]-2,3-dihydro-1-benzothiepin-8-ol] | – | – | – | 9 | 0.7 | 86 | 3 | 14
Oc1ccc2c(c1)OCCC(c1ccc3c(c1)CCN3)=C2c1ccc(O[C@H]2CCN(CCCF)C2)cc1 [Example 104, 5-[4-[(3S)-1-(3-fluoropropyl)pyrrolidin-3-yl]oxyphenyl]-4-indolin-5-yl-2,3-dihydro-1-benzoxepin-8-ol] | – | – | – | 23 | 0.2 | 88 | 12 | 54
Oc1ccc2c(c1)OCCC(c1cccc(F)c1Cl)=C2c1ccc(O[C@H]2CCN(CCCF)C2)cc1 [Example 95, 4-(2-chloro-3-fluoro-phenyl)-5-[4-[(3S)-1-(3-fluoropropyl)pyrrolidin-3-yl]oxyphenyl]-2,3-dihydro-1-benzoxepin-8-ol] | – | – | – | 20 | 0.2 | 93 | 6 | 43
Oc1ccc(C2=C(c3ccc(O[C@H]4CCN(CCCF)C4)cc3)c3ccc(O)cc3SCC2)c(F)c1 [Example 169, 4-(2-fluoro-4-hydroxy-phenyl)-5-[4-[(3S)-1-(3-fluoropropyl)pyrrolidin-3-yl]oxyphenyl]-2,3-dihydro-1-benzothiepin-8-ol] | – | – | – | 3 | 0.2 | 85 | 2 | 5
Cc1cc2c(cc1O)OCCC(c1ccc3[nH]ccc3c1)=C2c1ccc(O[C@H]2CCN(CCCF)C2)cc1 [Example 139, 5-[4-[(3S)-1-(3-fluoropropyl)pyrrolidin-3-yl]oxyphenyl]-4-(1H-indol-5-yl)-7-methyl-2,3-dihydro-1-benzoxepin-8-ol] | – | – | – | 819 | 9 | 73 | 68 | 1170
Oc1ccc2c(c1F)OCCC(c1cccc3c1CCN3)=C2c1ccc(O[C@H]2CCN(CCCF)C2)cc1 [Example 134, 9-fluoro-5-[4-[(3S)-1-(3-fluoropropyl)pyrrolidin-3-yl]oxyphenyl]-4-indolin-4-yl-2,3-dihydro-1-benzoxepin-8-ol] | – | – | – | 225 | 3 | 85 | 19 | 328
